Assays:
[1] = target: T1, mu opioid receptor (MOR) (Homo sapiens, UniProt P35372); test: PathHunter β-arrestin recruitment assay, PAM mode with EC20 endomorphin-1; type: cell-based; details: for EC50: read-out: β-arr. EC50
Method: The effects of MOR PAMs and MOR SAMs on receptor activity were assayed using the PathHunter enzyme complementation assay technology (DiscoveRx, CA). A description of the technology employed is as follows.
Beta-Arrestin Pathway: The PathHunter β-arrestin assay monitors the activation of a GPCR in a homogenous, non-imaging assay format using a technology developed by DiscoveRx called Enzyme Fragment Complementation (EFC) with beta-galactosidase (β-Gal) as the functional reporter. […] EA is fused to β-Arrestin and ED is fused to the GPCR of interest. When the GPCR is activated and β-arrestin is recruited to the receptor, ED and EA complementation occurs, restoring β-gal activity, which is measured using chemiluminescent PathHunter Detection Reagents.
In this manner an EC50 for each test compound, and percent maximal response for each test compound, were determined for both the β-arrestin and cAMP pathways. Though the pharmacological effects of a given signal bias can be hypothesized (Raehal et al. (2011) Pharmacol. Rev. 63:1001-1019), it is not possible to know with certainty which bias ratio will be most advantageous in a clinical setting. […] Kenakin 2015a, supra. The information associated with the compounds detailed herein is the first large data set available for the prediction of ligand bias for an MOR PAM.

[2] = target: T1, mu opioid receptor (MOR); test: Hit Hunter cAMP signaling assay (adenylyl cyclase inhibition), PAM mode with EC20 endomorphin-1; type: cell-based
[3] = maximal response for β-arrestin recruitment
[4] = adenylyl cyclase inhibition, read-out: cAMP EC50
[5] = maximal response for adenylyl cyclase inhibition
[6] = cAMP EC50, adenylyl cyclase inhibition
[7] = maximal response, β-arrestin recruitment
[8] = maximal response, adenylyl cyclase inhibition

T1 sequence (P35372 whole entry): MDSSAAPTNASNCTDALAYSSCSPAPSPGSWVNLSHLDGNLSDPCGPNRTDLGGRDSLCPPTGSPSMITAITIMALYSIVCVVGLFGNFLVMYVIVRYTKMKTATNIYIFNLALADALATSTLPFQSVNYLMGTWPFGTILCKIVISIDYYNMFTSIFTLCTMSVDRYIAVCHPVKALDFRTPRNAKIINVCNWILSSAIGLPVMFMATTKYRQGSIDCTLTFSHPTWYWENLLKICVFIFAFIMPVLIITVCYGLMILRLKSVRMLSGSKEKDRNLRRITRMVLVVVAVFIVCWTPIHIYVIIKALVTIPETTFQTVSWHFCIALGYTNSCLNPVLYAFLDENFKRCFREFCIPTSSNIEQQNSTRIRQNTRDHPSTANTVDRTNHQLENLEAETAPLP

Compound	β-arr Max. Resp. [1, 3]	EC50 ([1]; β-arrestin recruitment)	EC50 [2, 4]	cAMP Max. Resp. [2, 5]	EC50 [2, 6]	β-arr Max. Resp. [1, 7]	cAMP Max. Resp. [2, 8]
COc1ccc(C2CCCCN2S(=O)(=O)c2ccc(F)cc2)cc1Br (centres unmarked) [compound 13]	F (F represents a maximal response of > 60%)	> 2100 nM	> 2100 nM	F (F represents a maximal response of > 60%)	–	–	–
Fc1ccc(C(F)(F)F)cc1C1CCCCN1c1nc(Cl)ncc1F (centres unmarked) [compound 353]	D (D represents a maximal response of < 40%)	< 700 nM	–	D (D represents a maximal response of < 40%)	< 700 nM	–	–
O=S(=O)(c1ccc(Cl)cc1)N1CCCC(F)C1c1ccc(F)c(Br)c1 (centres unmarked) [Compound 29]	–	> 2100 nM	> 2100 nM	–	–	–	–
Fc1ccc(C2CCCCN2c2cccc(Cl)c2)cc1Cl (centres unmarked) [compound 443]	–	> 2100 nM	–	–	> 2100 nM	F (F represents a maximal response of > 60%)	D (D represents a maximal response of < 40%)
Fc1ccc(Cl)cc1C1CCCCN1c1ccnc(Cl)n1 (centres unmarked) [compound 406]	D (D represents a maximal response of < 40%)	< 700 nM	–	D (D represents a maximal response of < 40%)	< 700 nM	–	–
Fc1cnc(Cl)nc1N1CCSCC1c1cccc(C(F)(F)F)c1 (centres unmarked) [Compound 456]	–	> 2100 nM	> 2100 nM	–	–	F (F represents a maximal response of > 60%)	E (E represents a maximal response of 40-60%)
FC(F)(F)c1cccc(C2CCCCN2c2nccc(Cl)n2)c1 (centres unmarked) [compound 258]	E (E represents a maximal response of 40-60%)	> 2100 nM	–	F (F represents a maximal response of > 60%)	> 2100 nM	–	–
Fc1cnc(Cl)nc1N1CCCCC1c1ccc2nccn2c1 (centres unmarked) [compound 421]	–	< 700 nM	–	–	< 700 nM	D (D represents a maximal response of < 40%)	D (D represents a maximal response of < 40%)
FC(F)(F)c1cccc(C2CCCCN2Cc2cncc(Cl)c2)n1 (centres unmarked) [compound 143]	D (D represents a maximal response of < 40%)	> 2100 nM	–	D (D represents a maximal response of < 40%)	> 2100 nM	–	–
Fc1c(C2CCCCN2c2ccnc(Cl)n2)cccc1C(F)(F)F (centres unmarked) [compound 365]	D (D represents a maximal response of < 40%)	< 700 nM	–	D (D represents a maximal response of < 40%)	< 700 nM	–	–
Fc1cnc(Cl)nc1N1CCCCC1c1ccccc1 (centres unmarked) [compound 362]	D (D represents a maximal response of < 40%)	< 700 nM	–	D (D represents a maximal response of < 40%)	< 700 nM	–	–
CC(C)(O)C(=O)N1CCN(c2nc(Cl)ncc2F)C(c2cc(F)cc(C(F)(F)F)c2)C1 (racemic) [Compound 307]	D (D represents a maximal response of < 40%)	> 2100 nM	> 2100 nM	F (F represents a maximal response of > 60%)	–	–	–
CC1CCN(S(=O)(=O)c2ccc(Cl)cc2)C1c1cccc(Cl)c1 (centres unmarked) [Compound 107]	F (F represents a maximal response of > 60%)	> 2100 nM	> 2100 nM	D (D represents a maximal response of < 40%)	–	–	–
CN(C)c1cccc(C2CCCCN2c2nc(N(C)C)ncc2F)n1 (centres unmarked) [compound 243]	F (F represents a maximal response of > 60%)	> 2100 nM	–	E (E represents a maximal response of 40-60%)	> 2100 nM	–	–
O=S(=O)(c1ccc(Cl)cc1)N1CCCCC1c1ccc(Cl)c(Br)c1 (racemic) [compound 74]	F (F represents a maximal response of > 60%)	> 2100 nM	> 2100 nM	E (E represents a maximal response of 40-60%)	–	–	–
OC1CCN(c2nc(Cl)ncc2F)C(c2ccc(F)c(Cl)c2)C1 (centres unmarked) [compound 293]	F (F represents a maximal response of > 60%)	> 2100 nM	–	F (F represents a maximal response of > 60%)	700 to 2100 nM	–	–

Reference: US11071731B2, “Allosteric modulators of the mu opioid receptor” (Chiromics, LLC, priority 2017, dated 2021)
